According to US12691101B2, “Compound and method for preventing or treating of respiratory diseases comprising the same as an active ingredient” (YONSEI UNIVERSITY, UNIVERSITY - INDUSTRY FOUNDATION (UIF), priority 2019, dated 2026):

Target: T1, human wild-type (WT)-pendrin (Homo sapiens, UniProt O43511)
T1 construct: expressed in transfected cells
T1 sequence (O43511 1-780): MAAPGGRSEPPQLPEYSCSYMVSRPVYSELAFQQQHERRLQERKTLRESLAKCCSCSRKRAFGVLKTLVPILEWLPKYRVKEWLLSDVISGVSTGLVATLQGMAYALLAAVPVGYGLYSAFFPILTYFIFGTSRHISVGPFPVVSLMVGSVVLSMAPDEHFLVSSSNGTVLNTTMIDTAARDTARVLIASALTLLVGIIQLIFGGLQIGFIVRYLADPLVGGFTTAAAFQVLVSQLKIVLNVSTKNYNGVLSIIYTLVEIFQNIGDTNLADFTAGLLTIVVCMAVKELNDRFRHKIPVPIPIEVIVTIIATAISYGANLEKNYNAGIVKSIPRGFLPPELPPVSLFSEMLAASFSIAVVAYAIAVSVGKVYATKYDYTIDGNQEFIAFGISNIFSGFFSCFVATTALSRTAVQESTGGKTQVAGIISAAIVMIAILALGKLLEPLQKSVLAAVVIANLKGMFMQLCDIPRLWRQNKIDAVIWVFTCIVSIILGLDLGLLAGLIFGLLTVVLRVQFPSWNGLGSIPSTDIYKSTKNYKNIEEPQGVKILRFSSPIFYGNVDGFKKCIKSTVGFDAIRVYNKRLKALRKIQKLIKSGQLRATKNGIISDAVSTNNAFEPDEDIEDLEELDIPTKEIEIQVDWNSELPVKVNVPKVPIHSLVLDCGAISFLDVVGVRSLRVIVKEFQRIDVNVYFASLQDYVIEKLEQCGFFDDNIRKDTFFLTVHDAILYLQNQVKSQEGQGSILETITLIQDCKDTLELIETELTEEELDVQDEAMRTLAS
Test: Pendrin-mediated Cl^−/I^− exchange activity, YFP fluorescence in CHO-K1 cells
Type: cell-based
Details: for inhibition at 30 µM: CHO-K1, 30 μM, read-out: Pendrin inhibitory activity at 30 μM (%); for IC50: compounds showing pendrin inhibitory activity of 50% or more at 30 μM, read-out: IC50
Description: Chinese hamster ovary (CHO)-K1 cells were maintained in a DMEM medium containing 10% fetal bovine serum (FBS), 100 units/ml penicillin and 100 100 μg/ml streptomycin. CHO-K1 cells were stably transfected with pcDNA3.1 encoding halide sensor YFP-H148Q/I152L/F46L and human wild-type (WT)-pendrin. For distribution of primary culture of human nasal cavity epithelium (HNE) cells, passage-2 cells were seeded into transwell-transparent culture inserts with a pore size of 0.45 μm (Costar Co., Cambridge, MA) at a density of 2×10^5 cells/cm^2. The cells were maintained in a 1:1 mixture of Dulbecco's modified Eagle's medium (Lonza, Walkersville, MD) and bronchial epithelial growth medium (Lonza) supplemented with the following growth factors according to the manufacturer's instructions. After immersing the cells for the first 7 days, they were exposed to the apical air interface for the remainder of the culture period. After establishment of the air-liquid interface, the cells were used between 14 and 21 days. At all stages of culture, the cells were maintained at 37° C. under 5% CO2 in an air incubator.
CHO-K1 cells expressing human WT pendrin and YFP-F46L/H148Q/I152L were plated on a 96-well microplate at a density of 2×10^4 cells per well and cultured for 48 hours. Each well of the cell cultured 96-well plate was washed with PBS of 200 μL twice and was filled with HEPES buffer solution of 50 μL, respectively. […] After culturing at 37° C. for 10 minutes, the 96-well plate was positioned on FLUOstar Omega microplate reader (BMG Labtech, Ortenberg, Germany) for fluorescence analysis. By continuously (400 ms per point) recording fluorescence for 1 second (base line), each well was individually analyzed for pendrin-mediated I^− inflow, and then at 1 second, 50 μL of NaI-substituted HEPES buffer solution (NaI replacing NaCl) was added using a liquid injector and the YFP fluorescence was recorded for 5 seconds. The initial iodide inflow rate was determined from the initial slope of fluorescence by nonlinear regression, after injection the iodide (See FIG. 1).
For measurement of Cl^−/I^− exchange activity, YFP fluorescence was measured in pendrin and halide sensor YFP expressing CHO-K1 cells. Each well of the cell cultured 96-well plate was washed with PBS of 200 μL twice, and was filled with HEPES buffer solution (140 mM NaCl, 5 mM KCl, 1 mM MgCl2, 1 mM CaCl2, 10 mM glucose and 10 mM HEPES (pH 7.4)), respectively. […] After culturing at 37° C. for 10 minutes, the 96-well plate was positioned on FLUOstar Omega microplate reader (BMG Labtech, Ortenberg, Germany) for fluorescence analysis.
By continuously (400 ms per point) recording fluorescence for 1 second (base line), each well was individually analyzed for pendrin-mediated I^− inflow, and then at 1 second, 50 μL of NaI-substituted HEPES buffer solution (140 mM NaI, 5 mM KCl, 1 mM MgCl2, 1 mM CaCl2, 10 mM glucose and 10 mM HEPES (pH 7.4)) was added using a liquid injector and the YFP fluorescence was recorded for 5 seconds. The initial iodide inflow rate was determined from the initial slope of fluorescence by nonlinear regression, after injection the iodide.

Row | SMILES | inhibition at 30 µM [%] | IC50 [µM]
1 | CC(C)(C)c1ccc(C2=NC(=Cc3ccc(OCc4ccccc4)cc3)C(=O)O2)cc1 [F64, 4-(4-(Benzyloxy)benzylidene)-2-(4-(tert-butyl)phenyl)oxazol-5 (4H)-one] | 2.8 | 
2 | Cn1cc(C=C2N=C(c3ccc(C(C)(C)C)cc3)OC2=O)cn1 [F39, 2-(4-(tert-butyl)phenyl)-4-((1-methyl-1H-pyrazol-4-yl)methylene)oxazol-5(4H)-one] | 58.8 | 25.8 ± 2.16
3 | Cc1ccc(/C=C2\N=C(c3ccc(C4=N/C(=C\c5ccc(C)o5)C(=O)O4)cc3)OC2=O)o1 [F79, 2,2′-(1,4-phenylene)bis(4-((5-methylfuran-2-yl)methylene)oxazol-5(4H)-one)] | 3.2 | 
4 | CC(C)(C)c1ccc(C2=NC(=Cc3cc4ccccc4s3)C(=O)O2)cc1 [F11, 4-(Benzo[b]thiophen-2-ylmethylene)-2-(4-(tert-butyl)phenyl)oxazol-5 (4H)-one] | 3.6 | 
5 | CC(C)(C)c1ccc(C2=NC(=Cc3ccco3)C(=O)O2)cc1 [F38, 2-(4-(tert-butyl)phenyl)-4-(furan-2-ylmethylene)oxazol-5 (4H)-one] | 92.6 | 3.5 ± 0.27
6 | Cc1ccc(C=C2N=C(c3ccc(S(=O)(=O)NC(C)(C)C)cc3)OC2=O)o1 [F126, N-(tert-butyl)-4-(4-((5-methylfuran-2-yl)methylene)-5-oxo-4,5-dihydrooxazol-2-yl) benzenesulfonamide] | 2.5 | 
7 | O=C1OC(c2ccc(C(F)(F)F)cc2)=NC1=Cc1ccc[nH]1 [F17, 4-((1H-pyrrol-2-yl)methylene)-2-(4-(trifluoromethyl)phenyl)oxazol-5(4H)-one] | 6.9 | 
8 | CCc1sc(C2=NC(=Cc3cccs3)C(=O)O2)cc1C [F103, 2-(5-Ethyl-4-methylthiophen-2-yl)-4-(thiophen-2-ylmethylene)oxazol-5(4H)-one] | 3.7 | 
9 | CC(=O)Nc1ccc(C=C2N=C(c3ccc(OC(C)C)cc3)OC2=O)cc1 [F129, N-(4-((2-(4-isopropoxyphenyl)-5-oxooxazol-4(5H)-ylidene)methyl)phenyl)acetamide] | 2.3 | 
10 | CC(=O)n1cc(C=C2N=C(c3ccc(C(C)(C)C)cc3)OC2=O)c2ccccc21 [F81, 4-((1-Acetyl-1H-indol-3-yl)methylene)-2-(4-(tert-butyl)phenyl)oxazol-5 (4H)-one] | 3.4 | 
11 | CC(C)c1ccc(C=C2N=C(c3cccc4ccccc34)OC2=O)cc1 [F62, 4-(4-Isopropylbenzylidene)-2-(naphthalen-1-yl)oxazol-5 (4H)-one] | 2.4 | 
12 | CC(C)(C)c1ccc(C2=NC(=Cc3ccccc3)C(=O)O2)cc1 [F44, 4-Benzylidene-2-(4-(tert-butyl)phenyl)oxazol-5 (4H)-one] | 3.5 | 
13 | CC(C)(C)c1ccc(C2=NC(=Cc3ccnc4ccccc34)C(=O)O2)cc1 [F13, 2-(4-(tert-butyl)phenyl)-4-(quinolin-4-ylmethylene)oxazol-5 (4H)-one] | 3.8 | 
14 | CC(C)Cc1ccc(C2=NC(=Cc3ccc[nH]3)C(=O)O2)cc1 [F20, 4-((1H-pyrrol-2-yl)methylene)-2-(4-isobutylphenyl)oxazol-5 (4H)-one] | 82.9 | 2.8 ± 0.26
15 | CCCCc1ccc(C2=NC(=Cc3ccc[nH]3)C(=O)O2)cc1 [F26, 4-((1H-pyrrol-2-yl)methylene)-2-(4-butylphenyl)oxazol-5(4H)-one] | 69.9 | 12.8 ± 1.55
16 | CC(C)(C)c1ccc(C2=NC(=Cc3cccn3-c3ccccc3)C(=O)O2)cc1 [F27, 2-(4-(tert-butyl)phenyl)-4-((1-phenyl-1H-pyrrol-2-yl)methylene)oxazol-5 (4H)-one] | 2.8 | 
17 | CC(C)Cc1ccc(C2=NC(=Cc3ccco3)C(=O)O2)cc1 [F19, 4-(Furan-2-ylmethylene)-2-(4-isobutylphenyl)oxazol-5 (4H)-one] | 54.8 | 20.1 ± 2.46
18 | CC(C)c1ccc(C2=NC(=Cc3ccc[nH]3)C(=O)O2)cc1 [F12, 4-((1H-pyrrol-2-yl)methylene)-2-(4-isopropylphenyl)oxazol-5(4H)-one] | 100 | 1 ± 0.15
19 | CC(C)(C)NS(=O)(=O)c1ccc(C2=NC(=Cc3cccs3)C(=O)O2)cc1 [F35, N-(tert-butyl)-4-(5-oxo-4-(thiophen-2-ylmethylene)-4,5-dihydrooxazol-2-yl)benzene sulfonamide] | 87.2 | 11.6 ± 1.25
20 | CC(=O)n1cc(C=C2N=C(c3ccc(C(C)(C)C)cc3)OC2=O)c(-c2ccccc2)n1 [F82, 4-((1-Acetyl-3-phenyl-1H-pyrazol-4-yl)methylene)-2-(4-(tert-butyl)phenyl)oxazol-5 (4H)-one] | 2.7 | 
21 | O=C1OC(c2ccc([N+](=O)[O-])cc2Cl)=NC1=Cc1cccs1 [F93, 2-(2-Chloro-4-nitrophenyl)-4-(thiophen-2-ylmethylene)oxazol-5(4H)-one] | 2.5 | 
22 | O=C1OC(Cc2ccc(-c3ccccc3)cc2)=NC1=Cc1cccs1 [F28, 2-([1,1′-biphenyl]-4-ylmethyl)-4-(thiophen-2-ylmethylene)oxazol-5 (4H)-one] | 2.2 | 
23 | COc1ccccc1C1=NC(=Cc2sc3nc(C)nc(C)c3c2C)C(=O)O1 [F113, 2-(2-Methoxyphenyl)-4-((2,4,5-trimethylthieno[2,3-d]pyrimidin-6-yl)methylene) oxazol-5(4H)-one] | 3.5 | 

Next, values leading:

Row | inhibition at 30 µM [%] | IC50 [µM] | SMILES
24 | 2.7 |  | Cc1cc(C)cc(C(=O)NC(=Cc2cccs2)C(=O)O)c1 [G42, 2-(3,5-Dimethylbenzamido)-3-(thiophen-2-yl)acrylate]
25 | 2.9 |  | COC(=O)C(=Cc1ccc[nH]1)NC(=O)c1ccc(C(C)(C)C)cc1 [G1, Methyl 2-(4-(tert-butyl)benzamido)-3-(1H-pyrrol-2-yl)acrylate]
26 | 1.9 |  | O=C(O)C(=Cc1ccsc1)NC(=O)c1ccc2ccccc2c1 [G24, 2-(2-Naphthamido)-3-(thiophen-3-yl)acrylate]
27 | 22.4 |  | CC(C)(C)c1ccc(C(=O)NC(=Cc2cccn2-c2ccccc2)C(=O)O)cc1 [G13, 2-(4-(tert-butyl)benzamido)-3-(1-phenyl-1H-pyrrol-2-yl)acrylate]
28 | 3.8 |  | COC(=O)C(=Cc1cccs1)NC(=O)c1ccc(C(C)(C)C)cc1 [G2, Methyl 2-(4-(tert-butyl)benzamido)-3-(thiophen-2-yl)acrylate]
29 | 3.4 |  | COC(=O)C(=Cc1ccco1)NC(=O)c1ccc(Br)cc1 [G20, Methyl 2-(4-bromobenzamido)-3-(furan-2-yl)acrylate]
30 | 60.9 | 22.6 ± 2.46 | CC(C)(C)c1ccc(C(=O)NC(=Cc2ccco2)C(=O)O)cc1 [G5, 2-(4-(tert-butyl)benzamido)-3-(furan-2-yl)acrylate]
31 | 2.7 |  | O=C(O)C(=Cc1ccco1)NC(=O)c1ccc(C(F)(F)F)cc1 [G18, 3-(Furan-2-yl)-2-(4-(trifluoromethyl)benzamido)acrylate]
